Assay type in all cases: cell-based, human
The subject of data set [1] is SW480, DLD1 and p53-null cell line HCT116. Briefly: CellTiter-Glo luminescent cell viability assay (Example 1). Here is the method: SW480, DLD-1, DLD1-p73KD, HCT116, and p53-null HCT116, MRC5 and Wi38 cells were seeded at 5,000 cells per well on 96-well plates. […] Then, cells were mixed with an equal volume of CellTiter-Glo® reagents (Promega), following the manufacturer's protocol, and bioluminescence imaging was measured using the IVIS imager.
(In general: ATP-based viability assays read luminescence as a measure of living cells.)

The next data set has as its system p53-target genes. Briefly: Western blotting of p53-target genes (Example 1). On the procedure: After treatment, protein lysates were collected for Western blot analysis. Twenty-five micrograms of protein were used for SDS-PAGE. After primary and secondary antibody incubations, the signal was detected with a chemiluminescent detection kit, followed by autoradiography or Syngen. […] In FIG. 10, p53-null HCT116 cells were treated with P01 and P306, alone or in combination with SiCon or SiTAp73, in various concentrations for 6 hours, and tested for p73 (C.S.), p73 (Bethyl), P63-α, p53, DR5, Puma, P21, and Ran proteins.

A further data set concerns HT29 cells. Nature of the data set: Flow cytometry sub-G1 (PI staining) analysis. Conditions: HT29, 20 μM Z-VAD-FMK co-treated with 1 μM PG3-Oc, 48 hours. Here is the method: • 1) Cell lines: HT29, SW480, DLD-1, HCT116, and p53-null HCT116 cells, H1975, MDA-MD-231, U251, FaDu, CAL-27, PANC-1, Aspc-1, and MRC5 were obtained from the ATCC and cultured as recommended. Cells were regularly authenticated by bioluminescence, growth, and morphologic observation. The cells were routinely examined for Mycoplasma and all cell lines underwent STR authentication. • 2) Western blotting: After treatment, protein lysates were collected for Western blot analysis. 15 μg of protein was used for SDS-PAGE. After primary and secondary antibody incubations, the signal was detected by chemiluminescent detection kit, imaged by Syngene (Imgen Technologies). Antibodies for Puma, FLIPL/S and p53 (Santa Cruz Biotechnology), cleaved caspase 8, caspase 9, caspase 3, cleavage PARP, eIF2α, p-eIF2α(Ser51), CHOP, ATF4, DR5, FOXO3a, p-FOXO3a(Ser253), NF-κB p65, p-NF-κB p65(Ser536), c-Jun, p-c-Jun(Ser63), JNK, p-JNK(Thr183/Tyr185) (Cell Signaling Technology), Noxa, p21 (Calbiochem), p73 (Bethyl laboratories Inc), Ran (BD Biosciences), […] (Sigma). • 3) Cell viability assay: Cells were seeded in 96-well plate (6×10^3 cells/well). Cells were treated with different concentrations of compounds or dimethyl sulfoxide (DMSO) control for 72 hours. The cell viability was assessed by CellTiterGlo bioluminescent cell proliferation assay (Promega), following the manufacturer's protocol. Bioluminescence imaging was measured using the IVIS imager. Percentage of cell viability (mean±SEM) at each dose was calculated against the respective DMSO control. The IC50 values were determined from the sigmoidal dose-response curves using GraphPad Prims4. • 4) Caspase activity assay: Cells were seeded in 96-well plate (1×10^4 cells/well). Cells were treated with different concentrations of compounds or DMSO control for 24 hours. The caspase 3/7 activity was assessed by Caspase-Glo® 3/7 Assay kit (Promega), following the manufacturer's protocol. Bioluminescence imaging was measured using the IVIS imager. Caspase activity was normalized to cell numbers and compared to those of DMSO treatment as control in each cell line. Data is reported as mean RLU+SEM (n=3). • 5) Colony formation assays: Five hundred cells were seeded per well on 6-well plates and treated with different concentrations of compounds for 24 hours, then, cells were cultured with drug-free complete medium for 2 weeks with fresh medium changed every 7 days. Cells were fixed with 10% formalin and stained with 0.05% crystal violet at the end of 2 weeks period of cell culture. • 6) Flow cytometry assay: • a) Cell Cycle Analysis: Propidium iodide (PI) staining and flow cytometry were used to determine the degree of cellular apoptosis. Cells were seeded at 3×10^5 cells/well in six-well plates. Cells were treated with PG3-Oc for 48 hours. Cells were harvested, fixed by 70% ethanol, and stained by propidium iodide, then flow cytometry was performed as previously described (Smithen et al., Org. Biomol. Chem., 2013, 11, 62-68). The percentage of hypodiploid cells (sub-G1) was used to quantify dead cells in apoptosis assays. • b) Early apoptosis detection: Cells were seeded at 3×10^5 cells/well in six-well plates. Cells were treated with PG3-Oc for 48 hours. […]
(In flow cytometry, cells or beads pass a laser one at a time.)

The subject of another data set is c-Myc and PUMA. Briefly: Western blot of c-Myc, PUMA and p53 target genes. Conditions: HT29 cells. On the procedure:
(§1) After treatment, protein lysates were collected for Western blot analysis. A total of […] of protein was used for SDS-PAGE. After primary and secondary antibody incubations, the signal was detected by a chemiluminescence detection kit, imaged by Syngene (Imgen Technologies). Antibodies for PUMA (for IHC), p53 (Santa Cruz Biotechnology), caspase 8, cleaved caspase 8, caspase 9, caspase 3, cleavage PARP, eIF2α, p-eIF2α (Ser51), CHOP, ATF4, DR5, FOXO3a, p-FOXO3a (Ser253), NF-κB p65, p-NF-κB p65 (Ser536), c-Jun, p-c-Jun (Ser63), JNK, p-JNK (Thr183/Tyr185), PUMA (for WB), c-Myc, phosphor-S62-cMyc (Cell Signaling Technology), Noxa, p21 (Calbiochem), p73 (Bethyl laboratories Inc), Ran (BD Biosciences), […] (Sigma).
To test this hypothesis, two ERK1/2 inhibitors that act by different mechanisms were used. U0126 is an indirect ERK1/2 inhibitor. It inhibits MEK1 kinase and blocks the phosphorylation of ERK1/2. […] Consistent with a previous publication (Choi et al., Genes Dev, 2010, 24, 1236-1241), SCH772984 can inhibit ERK1/2 function after ERK1/2 is phosphorylated (FIG. 73), and the same is observed for PG3-Oc (FIG. 73).
On the technique in general: In western blotting, separated proteins are transferred to a membrane and probed.

The subject of data set [2] is γ-H2AX in HT29 and SW480 cells. Nature of the data set: γ-H2AX DNA damage marker, western blot and immunofluorescence staining. Here is the method:
as §1
A total of 5×10^4 cells were seeded in each well of 8-well chamber slides. After treatment, cells were fixed and permeabilized by methanol:acetone (1:1) for 20 minutes at −20° C. Fixed cells were blocked by 2% BSA for 1 hour, followed by primary antibody incubation for 1 hours and Cy3-conjuated secondary antibody incubation for 1 hour at room temperature. After washing, cells were stained with DAPI for 10 minutes at room temperature. Cells were mounted, and examined by fluorescence microscopy.
DNA damage induces the p53 pathway and leads to cell apoptosis. To study whether the p53 pathway restoration by compound PG3-Oc is due to DNA damage, the uptake and localization of PG3-Oc was investigated in cells. PG3-Oc and prodigiosin are red fluorescent compounds, and their localization in live cells can be monitored by fluorescence microscopy. PG3-Oc and prodigiosin rapidly entered cells within 2 hours of incubation and remained in the cytosol at the 8-hour time point in HT29 and SW480 cells (FIG. 46). […] Baldino, et al. reported that prodigiosin localized to the cytoplasm, but not within the nucleus, and no γ-H2AX signal was detected in A549 cancer cells (Baldino et al., Bioorg Med Chem Lett, 2006, 16, 701-704). […]

6 molecules from patent US12344599B2, “Prodigiosin analogs and methods of use” (Institute For Cancer Research, priority 2016, dated 2025) can be followed below.

Read-outs that look alike come from different tables or passages of the source. * marks the point of attachment. Cbz = O=C(OCc1ccccc1)*; CH2F = FC*

On to `CCc1c(C)[nH]c(/C=C2\N=C(c3ccc[nH]3)C=C2OC)c1C` [P301], for which, in data set [1] (SW480, DLD1, p53-null HCT116), the “induction of cell death” value was “potently induced cell death”. Moreover, the IC50 values result in data set [1] (SW480, DLD1, p53-null HCT116, 72 hours) was “within nanomolar range”. Besides, in the data set on p53-target genes, the “expression of p53-target genes” value was “induced the expression of p53-target genes via p73”.
On to “Cbz-Val-Ala-Asp-CH2F [reference compound]”, for which, in the data set on HT29 cells, the “formation of a sub-G1 population induced by PG3-Oc” value was “completely blocked”.
Regarding `N#CC(=C(/N)Sc1ccccc1N)/C(C#N)=C(\N)Sc1ccccc1N` [U0126], the “effect on c-Myc and PUMA” value with c-Myc and PUMA is “potently induced the downregulation of c-Myc and the upregulation of PUMA”.
As for `CCCCCc1cc(/C=C2\N=C(c3ccc[nH]3)C=C2OC)[nH]c1C` [prodigiosin, Prodigiosin], the “induction of 65-H2AX (DNA damage marker) / foci formation” value in data set [2] (HT29 and SW480, 8-hour treatment) is “did not induce”.
For the molecule `O=C(Nc1ccc2[nH]nc(-c3ccncc3)c2c1)[C@@H]1CCN(CC(=O)N2CCN(c3ccc(-c4ncccn4)cc3)CC2)C1` [SCH772984], in the data set with c-Myc and PUMA, the “effect on c-Myc and PUMA” value was “potently induced the downregulation of c-Myc and the upregulation of PUMA”; the “effect on p53 target genes DR5, p21 and Noxa” value was “did not induce DR5, shown mild upregulation of p21 and suppressed Noxa expression”.
In the case of `CCc1c2c(nc3ccc(OC(=O)N4CCC(N5CCCCC5)CC4)cc13)-c1cc3c(c(=O)n1C2)COC(=O)[C@]3(O)CC` [CPT-11, Irinotecan], the “induction of 65-H2AX (DNA damage marker) / foci formation” value in data set [2] is listed as “significantly induced”.
